Measured values reported in PMC4426599, “Structure and mechanism of an antibiotics-synthesizing 3-hydroxykynurenine C-methyltransferase” (Scientific Reports, 2015).

How the values were obtained:
Ss-SibL (SibL) [1] = target: T1, Ss-SibL (SibL) (Streptosporangium sibiricum, UniProt C0LTM6); experiment: X-ray crystal structure of binary complex, […] A; type: binding; conditions: crystals obtained by using SAM, modelled as SAH; pH 7.7; SAM site; also bound in ternary complex 4U1Q
T1 construct: recombinant His6-tagged (pET-21b), E. coli BL21(DE3), Ni-NTA and gel filtration; homodimer; tag removal not described

Ss-SibL (SibL) [2] = target: T1, Ss-SibL (SibL); experiment: X-ray crystal structure of ternary complex with SAH, […] A; type: binding; conditions: SAH bound; D-/L-3-HK used in crystallization; pH 7.7; substrate site
[3] = target: the molecule itself; experiment: crystal structure; crystals of apo Ss-SibL, of the binary complex with SAH and of the ternary complex with SAH and 3-HK; sitting-drop vapour diffusion; homodimer seen in the crystal

## Nc1ncnc2c1ncn2[C@@H]1O[C@H](CSCC[C@H](N)C(=O)O)[C@@H](O)[C@H]1O [S-adenosylhomocysteine]
Ss-SibL (SibL) [1]
  X-ray crystal structure of binary complex, 2.6 A: the binary Ss-SibL/SAH and the ternary Ss-SibL/SAH/3HK complex crystals diffracted to higher resolution

## Nc1c(O)cccc1C(=O)C[C@H](N)C(=O)O [L-3-HK]
Ss-SibL (SibL) [2]
  X-ray crystal structure of ternary complex with SAH, 2.1 A: the electron densities clearly indicate that the bound substrate is L-3-HK

B1: Streptosporangium sibiricum SibL (enzyme)
chain: MSSELSALVPVLFGHAAFQQLNAGCQLGLFELLHERGPLSAEEVADALRLPRRSADILLLGTTALGLSTVTDGGYRNGAPIGAAFRDGLWPVLRDIVQYQDKIAYQPAADYVESLRTGQNAGIRHFPGTTRDLYSRLAAVPGLEELFYRGMHAWSQLSNPVLLAQPDFTRVHRVLDVGGGDAVNAVALARAHPSLRVTVLDRPGALEVARKTIAEAGLEERVRTHAADIFTDSYPAGHDCVLFAHQLVIWSPEQNLTLLRKAYDAVEPGGRVLVFNAFTDDDRTGPLYAALDNVYFTTLPFRHSTIHRWADCESWLREAGFTDVGRTAPPGWTPHGVVSGSRPR
notes: SibL, SAM-dependent 3-hydroxykynurenine C-methyltransferase of Streptosporangium sibiricum; amplified by PCR from S. sibiricum genomic DNA and cloned into pET-21b; Homodimer in the crystals; The ternary complex was first phased with selenomethionine-substituted protein; also called Ss-SibL; 3-hydroxykynurenine C-methyltransferase; source: E. coli BL21 (DE3), purified (Ni-NTA, Superdex-200 size …)
[3]
  stoichiometry N: 2
